From PMC8041284, “Tunable Methacrylamides for Covalent Ligand Directed Release Chemistry” (Journal of the American Chemical Society, 2021)
Read-outs that look alike come from different tables or passages of the source.

Target: BTK (Homo sapiens, UniProt Q06187)
Assay: biochemical
[1] = read-out: BTK inhibition (%), 0.75 uM BTK, […] probe 3l, 15 min preincubation

BTK, sequence (Q06187 402-655 limits assumed): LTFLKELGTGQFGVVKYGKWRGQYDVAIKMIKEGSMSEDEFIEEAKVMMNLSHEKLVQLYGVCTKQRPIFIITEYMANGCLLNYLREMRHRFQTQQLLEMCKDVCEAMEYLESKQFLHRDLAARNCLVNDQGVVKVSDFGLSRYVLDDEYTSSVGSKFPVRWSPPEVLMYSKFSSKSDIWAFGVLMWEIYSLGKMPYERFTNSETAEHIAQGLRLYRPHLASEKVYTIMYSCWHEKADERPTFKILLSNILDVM

Molecule `Cc1cc(N2CCCCC2)nc2ccccc12` [PCM-0215982] has an inhibition at 10 µM [1] of 10%.
With `O=C(O)c1cc(N=Nc2ccc(O)c(C(=O)O)c2)ccc1O` [PCM-0214745] the inhibition at 10 µM [1] was 17.2%.
For `CCC[S+]([O-])c1ccc2nc(NC(=O)OC)[nH]c2c1` (stereo not shown) [PCM-0095157], the inhibition at 10 µM [1] was 20.2%.
In the case of `N#Cc1ccc(C(c2ccc(C#N)cc2)n2cncn2)cc1` [PCM-0086304], the inhibition at 10 µM [1] is reported as -2.1%.
With `Cc1cc2c3c([n+](C)c4ccc(F)cc4c3c1)-c1cc(F)ccc1N2C` [PCM-0215703] the inhibition at 10 µM [1] was 13.1%.
Work on `CN[C@@H](C)C(=O)N[C@H](C(=O)N1CCC[C@H]1C(=O)N[C@H]1c2ccccc2C[C@H]1OCC#CC#CCO[C@@H]1Cc2ccccc2[C@@H]1NC(=O)[C@@H]1CCCN1C(=O)[C@@H](NC(=O)[C@H](C)NC)C1CCCCC1)C1CCCCC1` [PCM-0215824] yielded an inhibition at 10 µM [1] of 2.6%.
In the case of `CCS(=O)(=O)N1CCC(C(C)n2c(C)c(C(=O)NCc3c(OC)cc(C)[nH]c3=O)c3ccccc32)CC1` (stereo not shown) [PCM-0215486], the inhibition at 10 µM [1] is reported as -3.1%.
With `CCCC(=O)O` [PCM-0095272] the inhibition at 10 µM [1] was 0%.
With `CC(=O)OCc1ccccc1` [PCM-0216204] the inhibition at 10 µM [1] was 10.8%.
Molecule `O=C(Nc1ccc(S(=O)(=O)Nc2ccccc2Cl)c(Cl)c1)c1ccccn1` [PCM-0095621] has an inhibition at 10 µM [1] of -21.6%.
`CC(=O)N[C@@H](CC(C)C)C(=O)N[C@@H](CC(C)C)C(=O)N[C@H](C=O)CCCN=C(N)N` [PCM-0215331] gave an inhibition at 10 µM [1] of 9.3%.
In the case of `Cc1c(C(=O)Nc2ccc(N3C[C@@H](C)O[C@@H](C)C3)nc2)cccc1-c1ccc(OC(F)(F)F)cc1` [PCM-0095316], the inhibition at 10 µM [1] is reported as 6.2%.
Molecule `C=C[C@H]1CN2CC[C@H]1C[C@H]2[C@H](O)c1ccnc2ccc(OC)cc12` [PCM-0004959] has an inhibition at 10 µM [1] of -22.6%.
`CC1(C)CCC[C@]2(C)[C@H]3CC(=O)O[C@]3(C)CC[C@@H]12` [PCM-0090818] was tested, and the inhibition at 10 µM [1] was -18.7%.
With `C=CC(=O)Nc1cccc(C)c1Nc1ncc2cc(-c3c(Cl)c(OC)cc(OC)c3Cl)ccc2n1` [PCM-0215508] the inhibition at 10 µM [1] was 100%.
For `C[C@@H]1O[C@@H](O[C@H]2[C@H](O[C@H]3CC[C@@]4(C)[C@@H](CC[C@]5(C)[C@@H]4CC=C4[C@@H]6CC(C)(C)CC[C@]6(C(=O)O)CC[C@]45C)[C@]3(C)CO)OC[C@H](O)[C@@H]2O)[C@H](O)[C@H](O)[C@H]1O` [PCM-0214969], the inhibition at 10 µM [1] was -10.9%.
Molecule `O=Cc1ccccc1` [PCM-0216202] has an inhibition at 10 µM [1] of -2.3%.
`O=C(C[C@H]1NCCC[C@@H]1O)Cn1cnc2cc(Br)c(Cl)cc2c1=O` [PCM-0102069] gave an inhibition at 10 µM [1] of 0%.
With `CC(=O)OCC(=O)[C@@]12OC(C)(C)O[C@@H]1C[C@H]1[C@@H]3C[C@H](F)C4=CC(=O)C=C[C@]4(C)[C@@]3(F)[C@@H](O)C[C@@]12C` [PCM-0214700] the inhibition at 10 µM [1] was 19.3%.
With `CCC(C)(C)C(=O)O[C@H]1C[C@@H](C)C=C2C=C[C@H](C)[C@H](CC[C@@H]3C[C@@H](O)CC(=O)O3)[C@H]21` [PCM-0214653] the inhibition at 10 µM [1] was -13.1%.
`CC(C)(C)NC[C@H](O)COc1nsnc1N1CCOCC1` [PCM-0064983] gave an inhibition at 10 µM [1] of -3.9%.
In the case of `CC(C)c1cc2c(cc1S(=O)(=O)O)[C@@]1(C)CCC[C@@](C)(C(=O)O)[C@@H]1CC2` [PCM-0216123], the inhibition at 10 µM [1] is reported as 3.9%.
`C[C@@H]([C@H](C)O)[C@H](N)C(=O)O` [PCM-0216300] gave an inhibition at 10 µM [1] of -12.4%.
With `Cc1cccc(Nc2ccccc2C(=O)O)c1C` [PCM-0085867] the inhibition at 10 µM [1] was 17.2%.
With `Oc1ccc(Cc2nc3c(Cc4ccccc4)nc(-c4ccc(O)cc4)cn3c2O)cc1` [PCM-0215560] the inhibition at 10 µM [1] was 91.1%.
For `Cc1c(C(=O)Nc2ccc(Oc3ccnc4[nH]cc(-c5ccccc5)c34)c(F)c2)c(=O)n(-c2ccc(F)cc2)n1C` [PCM-0215493], the inhibition at 10 µM [1] was 95.9%.
`CCC(C)SSc1ncc[nH]1` (stereo not shown) [PCM-0215586] gave an inhibition at 10 µM [1] of 2.3%.
`C=C[C@@](C)(/C=C/c1ccc(O)cc1)CCC=C(C)C` [PCM-0094651] was tested, and the inhibition at 10 µM [1] was 6.9%.
With `CCN1CCCC1CNC(=O)c1cc(S(=O)(=O)CC)c(N)cc1OC` (stereo not shown) [PCM-0064775] the inhibition at 10 µM [1] was 0.8%.
For `C[C@]12CCC(=O)C=C1CC[C@@H]1[C@@H]2[C@@H](O)C[C@@]2(C)[C@H]1CC[C@]2(O)C(=O)CO` [PCM-0214647], the inhibition at 10 µM [1] was 12.4%.
`CC1(C)CC[C@]2(C(=O)O)CC[C@]3(CO)C(=CC[C@@H]4[C@@]5(C)C[C@H](O)[C@H](O[C@@H]6O[C@H](CO)[C@@H](O)[C@H](O)[C@H]6O)[C@@](C)(C(=O)O)[C@@H]5CC[C@]43C)[C@@H]2C1` [PCM-0216380] showed an inhibition at 10 µM [1] of 11.6%.
`COc1ncc(-c2ccc3nccc(-c4ccnnc4)c3c2)cc1NS(=O)(=O)c1ccc(F)cc1F` [PCM-0095528] gave an inhibition at 10 µM [1] of -18.6%.
`O=C(O[C@@H]1O[C@@H]2COC(=O)c3cc(O)c(O)c(O)c3-c3c(cc(O)c(O)c3O)C(=O)O[C@H]([C@H]1O)[C@@H]2O)c1cc(O)c(O)c(O)c1` [PCM-0216383] was tested, and the inhibition at 10 µM [1] was 37.1%.
`CN(CCOc1ccc(NS(C)(=O)=O)cc1)CCc1ccc(NS(C)(=O)=O)cc1` [PCM-0065138] was tested, and the inhibition at 10 µM [1] was -7%.
Molecule `O=C(Nc1ccc(Br)cc1)c1ccc(Br)c(S(=O)(=O)NCc2ccccc2)c1` [PCM-0215665] has an inhibition at 10 µM [1] of 100%.
Molecule `CCCCCN(C)CCC(O)(P(=O)(O)O)P(=O)(O)O` [PCM-0065595] has an inhibition at 10 µM [1] of -0.9%.
`CCOC(=O)c1cc2ccccc2oc1=O` [PCM-0216280] showed an inhibition at 10 µM [1] of -16.2%.
Work on `CC[C@@H]1/C=C(\C)C[C@H](C)C[C@H](OC)[C@H]2O[C@@](O)(C(=O)C(=O)N3CCCC[C@H]3C(=O)O[C@H](/C(C)=C/[C@@H]3CC[C@H](Cl)[C@H](OC)C3)[C@H](C)[C@@H](O)CC1=O)[C@H](C)C[C@@H]2OC` [PCM-0214690] yielded an inhibition at 10 µM [1] of -13.8%.
`CC(=O)Oc1cccc2ccccc12` [PCM-0215066] gave an inhibition at 10 µM [1] of -21%.
`CC(C)(C#N)c1ccc(N2C(=O)OCc3cnc4ccc(-c5cnc6ccccc6c5)cc4c32)cc1` [PCM-0215242] was tested, and the inhibition at 10 µM [1] was -4.8%.
With `COc1ccc(C2=N[C@H](c3ccc(Cl)cc3)[C@H](c3ccc(Cl)cc3)N2C(=O)N2CCNC(=O)C2)c(OC(C)C)c1` [PCM-0215386] the inhibition at 10 µM [1] was -27.8%.
In the case of `Cc1nc2cccc(N)c2c(=O)n1C1CCC(=O)NC1=O` (stereo not shown) [PCM-0215785], the inhibition at 10 µM [1] is reported as 2.3%.
In the case of `Cc1cccc(-c2[nH]c(CNc3ccccc3F)nc2-c2ccc3ncnn3c2)n1` [PCM-0215382], the inhibition at 10 µM [1] is reported as -1.5%.
With `OC[C@H]1O[C@@H](O[C@H]2[C@H](O)[C@@H](O)C(O)O[C@@H]2CO)[C@H](O)[C@@H](O)[C@@H]1O` (stereo partly shown) [PCM-0215689] the inhibition at 10 µM [1] was -3.4%.
`NCC(CC(=O)O)c1ccccc1` (stereo not shown) [PCM-0215126] showed an inhibition at 10 µM (read-out: BTK inhibition (%)) of -9.3%.
For `Cc1cn([C@H]2C[C@H](O)[C@@H](CO)O2)c(=O)[nH]c1=O` [PCM-0215065], the inhibition at 10 µM [1] was -11.7%.
Molecule `COc1cc(/C=C/C(=O)O[C@H]2[C@H](O)[C@@H](CO)O[C@@]2(CO)O[C@H]2O[C@H](CO)[C@@H](O)[C@H](O)[C@H]2O)ccc1O` [PCM-0216331] has an inhibition at 10 µM [1] of -3.1%.
Molecule `CC1=C(C(=O)Nc2ccc3[nH]ncc3c2)C(c2ccc(F)cc2)NC(=O)N1` (stereo not shown) [PCM-0215810] has an inhibition at 10 µM [1] of 19.3%.
`CN1CCN(c2ccc(-c3ccncc3-c3cc(F)c(O)c(F)c3)cc2)CC1` [PCM-0215608] was tested, and the inhibition at 10 µM [1] was 6.2%.
`CNC(=O)c1cc(Oc2ccc(NC(=O)Nc3ccc(Cl)c(C(F)(F)F)c3)cc2)ccn1` [PCM-0094958] gave an inhibition at 10 µM [1] of 73.8%.
Work on `COC(=O)CCSCc1ccc(-c2onc(C)c2NC(=O)OC(C)c2ccccc2Cl)cc1` (stereo not shown) [PCM-0095376] yielded an inhibition at 10 µM [1] of 20.2%.
`Cc1nc(Nc2ncc(C(=O)Nc3cc(NC(=O)c4cccc(C(F)(F)F)c4)ccc3C)s2)cc(N2CCN(CCO)CC2)n1` [PCM-0216225] gave an inhibition at 10 µM [1] of 47.9%.
